How the values were obtained:
[1] = tested on: purified yeast fungus (C. glabrata); assay: Staining of yeast-like fungi in spiked negative urine, flow cytometer UF-5000 SF channel, average fluorescence intensity of the yeast cluster; assay type: cell-based; details: for average value of the fluorescence intensity compared with when other compounds are used: concentrations of Table 2; for average value of the fluorescence intensity compared with 2-phenoxyethanol used alone: Example 2, compound mixed with 2-phenoxyethanol
Procedure: Each of the following substances was dissolved in purified water to prepare a buffer solution.
When the compound shown in the following table was not dissolved, the compound was used after filtration. […] Furthermore, a first reagent having the same composition as Diluting Liquid of EXAMPLE-1 of U.S. Patent Publication No. 2006/0073601 was prepared. The first reagent is represented by [2-phenoxyethanol(*)] in the following table. In the following table, the compound of the present embodiment is shown in bold.
UF-fluorocell SF for UF-5000 (Sysmex Corporation) was used. Such reagents include polymethine-based dyes and stain lipid bilayer membranes and porous protein aggregates of cells, and the like.
A purified yeast fungus (C. glabrata) was added to negative urine to a concentration of about 1800 cells/μL. In order to confirm the effect on red blood cells, human blood was added to negative urine so that the concentration of red blood cells was about 400 cells/μL. As the negative urine, a commercially available Normal Human Urine (Golden West Diagnostics, LLC) was filtered through a 0.22-μm membrane filter, and a urine specimen having a negative result in a sediment assay was used.
A measurement sample was prepared by mixing a first reagent and a second reagent with a urine sample, and measurement was performed using an SF channel of a flow cytometer UF-5000 (Sysmex Corporation), and a scattergram was prepared in which a forward scattered light intensity was taken on the vertical axis and a fluorescence intensity was taken on the horizontal axis. In measurement using the SF channel, red blood cells, crystals, a glass cylinder, a cylinder containing contents, and the like are measured. To calculate the average value of the fluorescence intensity of yeast fungi, an arbitrary region Y for each measurement was set, and the average value of the fluorescence intensity of a population of dots appearing in the region was calculated. Note that the value of the fluorescence intensity is a relative value when the minimum value of the horizontal axis in the scattergram is 0 and the maximum value is 255.
SF. Specifically, after mixing 362.5 μL of the first reagent, 125 μL of the urine specimen, and 12.5 μL of the second reagent, the measurement sample was prepared by stirring at about 39° C. for 9 seconds, and then flowed into the flow cell of the detection section. Information on scattered light and fluorescence emitted from particles in the measurement sample that received the laser beam was acquired by the detection unit. A scattergram was generated based on the obtained optical information.

yeast-like fungi = assay: Clinical urine specimens, staining of yeast-like fungi on the scattergram; assay type: cell-based; details: Example 4, chlorphenesin 3 g/L, or 1,2-octanediol 2 g/L with 2-phenoxyethanol 6 g/L, control UF-CELLPACK SF
Procedure: The following specimens were used as the specimen. • (1) Clinical specimen 1: a specimen in which yeast-like fungi and red blood cells are detected in a microscopy • (2) Clinical specimen 2 to 4: a specimen in which yeast-like fungi have been detected by microscopy • (3) Clinical specimen 5 to 10: a specimen in which red blood cells are detected in a microscopy
A urine sample was measured in the same manner as in Example 1, except that the first reagent was prepared by adding 3 g/L chlorphenesin or 6 g/L 2-phenoxyethanol and 2 g/L 1,2-octanediol to the buffer solution described in Example 1. In addition, a urine sample was measured in the same manner as in Example 1 using UF-CELLPACK SF (manufactured by Sysmex) as a first reagent as a control. UF-CELLPACK SF (manufactured by Sysmex) contained 6 g/L of 2-phenoxyethanol. In the following table, the compound of the present embodiment is shown in bold.

[2] = Example 1, 10 g/L in first reagent, final 7.3 g/L, filtered if not dissolved, relative scale 0-255

CCCCCCCCCCC(O)CO (stereo not drawn) [1,2-DODECANEDIOL, reference compound]
AVERAGE VALUE OF FLUORESCENT SIGNAL INTENSITY ([1]; Example 1, 0.5 g/L in first reagent, final 0.4 g/L, relative scale 0-255): 107.6

COc1cccc(OCC(C)O)c1 (stereo not drawn) [1-(3-METHOXYPHENOXY)-2-PROPANOL, 1-(3-methoxyphenoxy)-2-propanol]
AVERAGE VALUE OF FLUORESCENT SIGNAL INTENSITY ([1]; Example 1, 9 g/L in first reagent, final 6.5 g/L, relative scale 0-255): 246.8
average value of the fluorescence intensity compared with when other compounds are used ([1]; Example 1): significantly larger

OCCCCCCCCO [1,8-OCTANEDIOL, reference compound]
AVERAGE VALUE OF FLUORESCENT SIGNAL INTENSITY [1, 2]: 120.5

OCCCOc1ccccc1 [3-PHENOXY-1-PROPANOL, 3-phenoxy-1-propanol]
AVERAGE VALUE OF FLUORESCENT SIGNAL INTENSITY ([1]; Example 1, 7 g/L in first reagent, final 5.1 g/L, relative scale 0-255): 253.6
average value of the fluorescence intensity compared with when other compounds are used ([1]; Example 1): significantly larger
average value of the fluorescence intensity compared with 2-phenoxyethanol used alone [1]: significantly larger

OCCOCCOc1ccccc1 [PHENYL DIGLYCOL, reference compound]
AVERAGE VALUE OF FLUORESCENT SIGNAL INTENSITY [1, 2]: 165.0

Oc1ccccc1-c1ccccc1 [ORTHOPHENYLPHENOL, orthophenylphenol]
AVERAGE VALUE OF FLUORESCENT SIGNAL INTENSITY ([1]; Example 1, 3 g/L in first reagent, final 2.2 g/L, relative scale 0-255): 250.1
average value of the fluorescence intensity compared with when other compounds are used ([1]; Example 1): significantly larger

CCCCCCCCC(C)O (stereo not drawn) [2-DECANOL, reference compound]
AVERAGE VALUE OF FLUORESCENT SIGNAL INTENSITY [1, 2]: 106.0

CCCCCCC(C)O (stereo not drawn) [2-OCTANOL, 2-octanol]
AVERAGE VALUE OF FLUORESCENT SIGNAL INTENSITY [1, 2]: 240.6

COC(=O)c1ccc(O)cc1 [METHYLPARABEN, reference compound]
AVERAGE VALUE OF FLUORESCENT SIGNAL INTENSITY ([1]; Example 1, 1.9 g/L in first reagent, final 1.4 g/L, relative scale 0-255): 220.5

OCCOc1ccccc1 [2-PHENOXYETHANOL, 2-phenoxyethanol, reference compound]
AVERAGE VALUE OF FLUORESCENT SIGNAL INTENSITY ([1]; Example 1, 7.5 g/L in first reagent, final 5.4 g/L, relative scale 0-255): 196.9

CCCCCCC(O)CO (stereo not drawn) [1,2-OCTANEDIOL, 1,2-octanediol]
AVERAGE VALUE OF FLUORESCENT SIGNAL INTENSITY ([1]; Example 1, 6 g/L in first reagent, final 4.4 g/L, relative scale 0-255): 253.4
average value of the fluorescence intensity compared with 2-phenoxyethanol used alone [1]: significantly larger
AVERAGE VALUE OF FLUORESCENT SIGNAL INTENSITY ([1]; Example 3, 3 g/L in first reagent, final 2.2 g/L): 222.1
AVERAGE VALUE OF FLUORESCENT SIGNAL INTENSITY ([1]; Example 3, 4 g/L in first reagent, final 2.9 g/L): 245.3
AVERAGE VALUE OF FLUORESCENT SIGNAL INTENSITY ([1]; Example 3, 5 g/L in first reagent, final 3.6 g/L): 251.0
AVERAGE VALUE OF FLUORESCENT SIGNAL INTENSITY ([1]; Example 3, 6 g/L in first reagent, final 4.4 g/L): 252.1
staining of yeast-like fungi (yeast-like fungi; clinical specimen 1 (yeast-like fungi and red blood cells)): more strongly stained
staining of yeast-like fungi (yeast-like fungi; clinical specimens 2 to 4 rich in yeast-like fungi): more strongly stained

OCCCCC(O)CO (stereo not drawn) [1,2,6-HEXANETRIOL, reference compound]
AVERAGE VALUE OF FLUORESCENT SIGNAL INTENSITY [1, 2]: 80.5

CCCCCCCCC(O)CO (stereo not drawn) [1,2-DECANEDIOL, 1,2-decanediol]
AVERAGE VALUE OF FLUORESCENT SIGNAL INTENSITY ([1]; Example 1, 1 g/L in first reagent, final 0.7 g/L, relative scale 0-255): 252.7

CCCCC(O)CO (stereo not drawn) [1,2-HEXANEDIOL, reference compound]
AVERAGE VALUE OF FLUORESCENT SIGNAL INTENSITY [1, 2]: 107.7

CCCCCC(C)O (stereo not drawn) [2-HEPTANOL, 2-heptanol]
AVERAGE VALUE OF FLUORESCENT SIGNAL INTENSITY [1, 2]: 250.1
average value of the fluorescence intensity compared with 2-phenoxyethanol used alone [1]: significantly larger

Source: patent US20250305931A1, “METHOD FOR ANALYZING A URINE SAMPLE, AND A REAGENT FOR ANALYZING A URINE SAMPLE” (SYSMEX CORPORATION, priority 2024, published 2025)
